# Laboratory results reported in patent US9532957B2, “Method of stabilizing reduced coenzyme Q10” (Kaneka Corporation, priority 2001, dated 2017).
# Assays:
# [1] = Oxidation stability of reduced coenzyme Q10 ethanol solution with L-ascorbic acid, stirred in air at 50° C.; type: physicochemical; conditions: 1 part L-ascorbic acid per 100 parts solvent, after 50 hours
# Description: In the examples, purity of reduced coenzyme Q10 and the weight ratio of reduced coenzyme Q10/oxidized coenzyme Q10 were determined by the HFLC analysis specified below. The reduced coenzyme Q10 purity values as determined, however, are by no means indicative of the limit purity value attainable in accordance with the present invention. Likewise, the ratio of the reduced coenzyme Q10 in the weight ratio of reduced coenzyme Q10/oxidized coenzyme Q10 values obtained never indicates the upper limit to that ratio.
# Column; SYMMETRY C18 (product of Waters), 250 mm (in length), 4.6 mm (in inside diameter): mobile phase; C2H5OH/CH3OH=4/3 (v/v); detection wavelength; 210 nm; flow rate; 1 ml/min: retention time of reduced coenzyme Q10; 9.1 min: retention time of oxidized coenzyme Q10; 13.3 min.
# Using the reduced coenzyme Q10 crystal obtained in Example 1, an ethanol solution containing 5 parts by weight of reduced coenzyme Q10 relative to 100 parts by weight of ethanol was prepared. To this ethanol solution, L-ascorbic acid was added so that 1 part by weight of L-ascorbic acid was contained relative to 100 parts by weight of the solvent (20 parts by weight relative to 100 parts by weight of reduced coenzyme Q10), and the solution was stirred in air at 50° C. […]
# [2] = Preliminary investigations on stabilization of reduced coenzyme Q10; type: physicochemical
Compound,X: The residual ratio of ascorbic acid [1] [%],stabilization effect on reduced coenzyme Q10 ([2]; preliminary investigations),"stabilization effect on reduced coenzyme Q10 ([2]; used in combination with polyhydric alcohols having 3 or more OH, such as glycerine)"
O=C1O[C@H]([C@@H](O)CO)C(O)=C1O [L-ascorbic acid],85.2,,
O=C1O[C@H]([C@@H](O)CO)C(O)=C1O [vitamin C],,has a stabilization effect,very poor
Vitamin E [reference compound],,does not have the effect,
